# In patent publication US10363230B2, “6-shogaol derivatives and activities thereof” (North Carolina Agricultural and Technical State University, priority 2017, dated 2019):
# Several values for one entry are separate records, joined by “and”; a condition that tells them apart may be missing. Equal values may be shown once.
# Tested on: Nrf2
# Assay: Nrf2 reporter activity by Tg(gstp1:GFP) fluorescence in transgenic zebrafish embryos
# Type: in vivo
# Settings: olfactory epithelia, 24-hour treatment from 1 dpf to 2 dpf, 5 μM (FIG. 2 legends), ratio to DMSO control, mean ± SD, at least 10 embryos
# Protocol: Zebrafish AB transgenic strains Tg(gstp1:GFP) were maintained in a Pentair Aquatic Ecosystem (Apopka, Fla., United States of America) fish housing unit with 14 h light/10 h dark cycle (see Tsujita, T., Li, L., Nakajima, H., Iwamoto, N., Nakajima-Takagi, Y., Ohashi, K., Kawakami, K., Kumagai, Y., Freeman, B. A., Yamamoto, M., and Kobayashi, M. (2011) “Nitro-fatty acids and cyclopentenone prostaglandins share strategies to activate the Keap1-Nrf2 system: a study using green fluorescent protein transgenic zebrafish.” Genes Cells 16, 46-57). The fish embryos were maintained at 28.5° C. in 0.3× Danieau's solution (19.3 mM NaCl, 0.23 mM KCl, 0.13 mM MgSO4, 0.2 mM Ca(NO3)2, 1.7 mM HEPES, pH 7.0) containing 30 μg/ml phenylthiourea (PTU) to inhibit pigmentation. Tg(gstp1:GFP) cross with AB wild-type strain fluorescence embryos were used for the experiment. Zebrafish embryos were washed, dechorionated and anaesthetized before observations, and fluorescence imaging for analysis.
# Transgenic zebrafish embryos at 1 day-post-fertilization (dpf) were dechorionated and placed in Petri dishes containing different chemicals diluted in 0.3× Danieau's solution containing PTU. The chemical stock was dissolved in DMSO at 5 mM concentration.
# An Olympus MVX10 Fluorescence Macroscope (Olympus, Center Valley, Pa., United States of America) equipped with a Hamamatsu C9300-221 high-speed digital CCD camera (Hamamatsu City, Japan) was used for fluorescence microscopy. Tg(gstp1:GFP) fluorescent embryos were anaesthetized in tricaine and imaged at 2 dpf. MetaMorph Basic software (Olympus, Center Valley, Pa., United States of America) was used for image acquisition and analysis.
# The fluorescence intensity of the olfactory neural epithelia was quantitated using MetaMorph Basic software. In brief, GFP expression in the olfactory regions of Tg(gstp1:GFP) embryos treated with various chemicals was measured after 24-hour treatment from 1 dpf to 2 dpf. The GFP induction was detectable by fluorescence signal at the area of the olfactory epithelia in the anterior of the head region, the intensity was measured using an area of a circle of 60 pixel diameter of the fluorescence olfactory epithelia subtracted by a background non-fluorescence area next to the zebrafish embryo. Both the left and right olfactory epithelia were measured to give an average fluorescence value. The values are an average of measurements from at least 10 embryos.
row,SMILES,"Ratio/CTL, Tg(gstp1:GFP) fluorescence signal (times higher than vehicle)"
1,"CCCCC/C=C/C(=O)CCc1ccc(O)c(OC)c1 [Compound 1, [6]-shogaol, reference compound]",2.40 ± 0.54
2,"CCCCCCC/C=C/C(=O)CCc1ccc(O)c(OC)c1 [Compound 2, reference compound]",1.67 ± 0.55
3,"CCCCCCCCC/C=C/C(=O)CCc1ccc(O)c(OC)c1 [Compound 3, reference compound]",1.53 ± 0.53
4,CCCCCC=CC(O)CCc1ccc(O)c(OC)c1 (stereo not shown) [Compound 4],1.13 and 1.13 ± 0.21
5,CCCCCCCC(=O)CCc1ccc(O)c(OC)c1 [Compound 5],1.27 and 1.27 ± 0.29
6,CCCCCC(CC(=O)CCc1ccc(O)c(OC)c1)SCC(N)C(=O)O (stereo not shown) [Compound 6],1.06 ± 0.20
7,CCCCCC(CC(=O)CCc1ccc(O)c(OC)c1)SCC(NC(C)=O)C(=O)O (stereo not shown) [Compound 7],1.04 ± 0.05
8,CCCCCC(CC(=O)CCc1ccc(O)c(OC)c1)SC (stereo not shown) [Compound 8],1.16 ± 0.47
9,CCCCCC(CC(=O)CCc1ccc(O)c(OC)c1)OC (stereo not shown) [Compound 10],0.96 ± 0.24
10,"CCCCC[C@H](O)CC(=O)CCc1ccc(O)c(OC)c1 [Compound 11, [6]-gingerol, reference compound]",1.87 and 1.87 ± 0.51
11,"CCCCCCC[C@H](O)CC(=O)CCc1ccc(O)c(OC)c1 [Compound 12, reference compound]",1.65 and 1.65 ± 0.29
12,"CCCCCCCCC[C@H](O)CC(=O)CCc1ccc(O)c(OC)c1 [Compound 13, reference compound]",1.29 and 1.29 ± 0.40
13,CCCCCC(CC(O)CCc1ccc(O)c(OC)c1)SCC(N)C(=O)O (stereo not shown) [Compound 15],1.08 ± 0.65
14,CCCCCC(CC(O)CCc1ccc(O)c(OC)c1)SCC(NC(C)=O)C(=O)O (stereo not shown) [Compound 16],0.78 ± 0.12
15,CCCCCC(CC(O)CCc1ccc(O)c(OC)c1)SC (stereo not shown) [Compound 17],0.72 ± 0.14
16,CCCCCCCC(=O)/C=C/c1ccc(O)c(OC)c1 [Compound 19],3.29 and 3.29 ± 0.35
17,CCCCC/C=C/C(=O)/C=C/c1cc(O)c(O)c(OC)c1 [Compound 20],1.26 and 1.26 ± 0.14
18,CCCCC/C=C/C(=O)/C=C/c1cc(OC)c(O)c(C(F)(F)F)c1 [Compound 21],2.18 and 2.18 ± 0.53
19,CCCCC/C=C/C(=O)/C=C/c1cccc(C(F)(F)F)c1 [Compound 22],1.28 and 1.28 ± 0.10
20,CCCCC/C=C/C(=O)/C=C/c1cccc(C(F)(F)F)c1F [Compound 23],1.63 and 1.63 ± 0.17
21,CCCCC/C=C/C(=O)/C=C/c1ccccc1C(F)(F)F [Compound 24],1.55 and 1.55 ± 0.67

# Same assay, conditions: olfactory epithelia, 24-hour treatment from 1 dpf to 2 dpf, 5 μM (FIG. 2 legends), ratio to DMSO control, mean ± SD, at least 10 embryos; listed as 6S
row,SMILES,"Ratio/CTL, Tg(gstp1:GFP) fluorescence signal (times higher than vehicle)"
1,"CCCCC/C=C/C(=O)CCc1ccc(O)c(OC)c1 [Compound 1, [6]-shogaol, reference compound]",2.40

# Same assay, conditions: olfactory epithelia, 24-hour treatment from 1 dpf to 2 dpf, 5 μM (FIG. 2 legends), ratio to DMSO control, mean ± SD, at least 10 embryos; listed as 8S
row,SMILES,"Ratio/CTL, Tg(gstp1:GFP) fluorescence signal (times higher than vehicle)"
1,"CCCCCCC/C=C/C(=O)CCc1ccc(O)c(OC)c1 [Compound 2, reference compound]",1.67

# Same assay, conditions: olfactory epithelia, 24-hour treatment from 1 dpf to 2 dpf, 5 μM (FIG. 2 legends), ratio to DMSO control, mean ± SD, at least 10 embryos; listed as 10S
row,SMILES,"Ratio/CTL, Tg(gstp1:GFP) fluorescence signal (times higher than vehicle)"
1,"CCCCCCCCC/C=C/C(=O)CCc1ccc(O)c(OC)c1 [Compound 3, reference compound]",1.53

# Tested on: not listed separately
# Assay: Cysteine conjugates in mouse urine after oral gavage (LC/MS)
# Type: in vivo
# Settings: oral gavage 200 mg/kg, urine collected in 24 h
# Protocol: LC/MS analysis was carried out with a Thermo-Finnigan Spectra System, which consisted of an Accela high speed MS pump, an Accela refrigerated autosampler, and an LCQ Fleet ion trap mass detector (Thermo Electron, San Jose, Calif., United States of America) incorporated with an electrospray ionization (ESI) interface. A Gemini-NX C18 column (150 mm×4.6 mm i.d., 5 μm; Phenomenex, Torrance, Calif., United States of America) was used for separation at a flow rate of 0.3 mL/min. The column was eluted with 100% A (5% aqueous methanol with 0.2% formic acid) for 1 min, followed by linear increases in B (95% aqueous methanol with 0.2% formic acid) to 55% from 1 to 4 min, to 85% from 4 to 25 min, then to 100% B from 25 to 30 min, and then with 100% B from 30 to 35 min. The column was then re-equilibrated with 100% A for 5 min. The LC eluent was introduced into the ESI interface. The positive ion polarity mode was set for the ESI source with the voltage on the ESI interface maintained at approximately 4.6 kV. Nitrogen gas was used as the sheath gas and auxiliary gas. […] The mass range was measured from 100 to 800 m/z. […]
# Enzymatic deconjugation of mouse urine was performed as described previously with slight modifications. […] The resulting suspension was centrifuged at 17,000 g for 5 min, and 10 μL of supernatant was analyzed directly by LC/MS.
row,Cysteine conjugates (metabolites) detected in mouse urine,SMILES
1,conjugate 35 was predominantly present,CCCCC/C=C/C(=O)/C=C/c1ccc(O)c(OC)c1 [Compound 18]

# Tested on: not listed separately
# Assay: Biotransformation of xenobiotics in zebrafish embryos (LC/MS)
# Type: in vivo
# Settings: 5 μM in incubation medium, 8 hpf to 24 hpf
# Protocol: Fifty zebrafish embryos at the 8 hour-post-fertilization (hpf) stage were incubated at 28.5° C. in 0.3× Danieau's solution (19.3 mM NaCl, 0.23 mM KCl, 0.13 mM MgSO4, 0.2 mM Ca(NO3)2, 1.7 mM HEPES, pH 7.0) with or without 5 μM 18 and 25-27, respectively. At 24 hpf, embryos were dechorionated manually and the chorions were carefully removed one by one from the culture medium. The zebrafish embryos were harvested and kept at −80° C. till analyzed by LC/MS.
# 200 μL Sodium acetate buffer solution (pH 5.0) was added to 50 zebrafish embryos. Samples were homogenized for 90 s by an Omni Bead Ruptor Homogenizer (Kennesaw, Ga., United States of America). 10 μL 10% ascorbic acid and 300 μL sodium acetate buffer were added to the homogenates. The mixture was incubated in the presence of β-glucuronidase (250 U) and sulfatase (3 U) at 37° C. for 45 min, and then 600 μL MeOH with 1% acetic acid was added. The resulting mixture was vortexed for 30 s and then centrifuged at 17000 g for 10 min. The supernatant was removed and evaporated under a gentle stream of nitrogen. The residue was reconstituted in 150 μL 90% MeOH with 0.2% acetic acid (AA), and 10 μL was analyzed directly by LC/MS.
# LC/MS analysis was carried out with a Thermo-Finnigan Spectra System, which consisted of an Accela high speed MS pump, an Accela refrigerated autosampler, and an LCQ Fleet ion trap mass detector (Thermo Electron, San Jose, Calif., United States of America) incorporated with an electrospray ionization (ESI) interface. A Gemini-NX C18 column (150 mm×4.6 mm i.d., 5 μm; Phenomenex, Torrance, Calif., United States of America) was used for separation at a flow rate of 0.3 mL/min. The column was eluted with 100% A (5% aqueous methanol with 0.2% formic acid) for 1 min, followed by linear increases in B (95% aqueous methanol with 0.2% formic acid) to 55% from 1 to 4 min, to 85% from 4 to 25 min, then to 100% B from 25 to 30 min, and then with 100% B from 30 to 35 min. The column was then re-equilibrated with 100% A for 5 min. The LC eluent was introduced into the ESI interface. The positive ion polarity mode was set for the ESI source with the voltage on the ESI interface maintained at approximately 4.6 kV. Nitrogen gas was used as the sheath gas and auxiliary gas. Optimized source parameters, including capillary temperature (260° C.), sheath gas flow rate (31 arbitrary units), auxiliary gas flow rate (16 units), tube lens (34 V), and capillary voltage 9 V, were tuned using authentic samples. The collision-induced dissociation (CID) was conducted with an isolation width 2 Da and normalized collision energy of 35 for MS^2. The mass range was measured from 100 to 800 m/z. Data acquisition was performed with Xcalibur version 2.0 (Thermo Electron, San Jose, Calif., United States of America).
row,Cysteine conjugates (metabolites) detected in zebrafish embryos,SMILES
1,conjugate 35 was predominantly present,CCCCC/C=C/C(=O)/C=C/c1ccc(O)c(OC)c1 [Compound 18]
2,"Three conjugates 37, 37b, and 38",CCCCC/C=C/C(=O)/C=C/c1ccc(O)c(O)c1 [Compound 26]

row,SMILES,Cysteine conjugates (metabolites) detected in zebrafish embryos
1,CCCCCCCC(=O)CCc1ccc(O)c(O)c1 [Compound 25],conjugates 37 and 37b were exclusively identified
